Eleven molecules from patent publication US6596753B2, “Compounds of the indolecarboxylic family and use thereof” (Societe L'Oreal S.A., priority 1997, dated 2003) can be followed below.

One test addresses T1, 5α-reductase 1 (Homo sapiens, UniProt P18405).
T1 construct: made in house; host or cells: COS7 cells (ATCC, CRL 1651), transient transfection with pSG5; 100,000 x g pellet of the lysate
T1 sequence (P18405 1-259): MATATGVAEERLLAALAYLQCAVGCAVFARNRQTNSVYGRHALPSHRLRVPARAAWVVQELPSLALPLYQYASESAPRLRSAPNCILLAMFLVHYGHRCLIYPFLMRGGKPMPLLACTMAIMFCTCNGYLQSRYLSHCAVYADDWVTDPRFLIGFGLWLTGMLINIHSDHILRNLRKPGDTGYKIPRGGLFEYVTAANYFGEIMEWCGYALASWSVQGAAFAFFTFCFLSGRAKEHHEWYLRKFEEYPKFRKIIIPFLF
Description: Inhibition of type 1 5α-reductase (14C-testosterone to DHT conversion, lysate of transfected COS7 cells). Type of test: biochemical. Particulars: for IC50: pH 6.5 phosphate buffer, 1 nM 14C-testosterone, 5 mM NADPH, 50 minutes at 37° C., read-out: 5α-reductases: IC50 Type I; for specificity with respect to type 1 5α-reductase (in words): type 1 versus type 2; for quality as inhibitor of 5α-reductase (in words): statement covers both types of 5α-reductase. The source says:
(§1) The coding sequences (complementary deoxyribonucleic acids: cDNA) of 5α-reductase 1 and of 5α-reductase 2 were cloned in the eukaryotic expression vector pSG5 (Stratagene). The enzymes were over-expressed after transient transfection of COS7 cells (ATCC, CRL 1651). The cDNAs of 5α-reductase 1 and of 5α-reductase 2 were obtained by reverse transcription and polymerase chain reaction (PCR) using specific primers, starting with total RNA from human testicles (sold by the company Clontech).
The primers used to obtain the 5α-reductase 1 cDNA are:
+ strand: 5′ […] 3′,
− strand: 5′ […] 3′.
(§2) By standard genetic engineering techniques, the 5α-reductase 1 cDNA obtained was inserted into the BamHI site of pSG5 and that of 5α-reductase 2 was inserted into the EcoRI site (see Maniatis et al., Molecular Cloning, Cold Spring Harbor, 1989).
(§3) The positive clones (recombinants) were identified by the hybridization technique with a cold probe (Plex luminescent kits, Millipore) and mapped by enzymatic digestions and partial sequencing.
(§4) After transient transfection, the COS7 cells are lysed in a 10 mM Tris-HCl, pH=7/150 mM KCl/1 mM EDTA buffer by 3 cycles of freezing/thawing. The homogenate is centrifuged at 100,000× g for 1 hour. The pellets containing the 5α-reductase 1 or the 5α-reductase 2 are taken up in a 40 mM, pH 6.5 phosphate buffer or a 40 mM, pH 5.5 citrate buffer for the 5α-reductase 1 or 5α-reductase 2, respectively.
(§5) 5 μg of proteins thus obtained are incubated in a well of a 96-well plate (NUNC) in the presence of 1 nM ^14C-testosterone (Amersham) and 5 mM nicotinamide […] dinucleotide phosphate, reduced form (NADPH) (Sigma) in the corresponding buffer (40 mM, pH 6.5 phosphate buffer or 40 mM, pH 5.5 citrate buffer for the 5α-reductase 1 or 5α-reductase 2, respectively) for 50 minutes at 37° C. after addition of the test products. The test products are added at concentrations of 10^−4 M to 10^−10 M, diluted in 40 mM, pH 6.5 phosphate buffer or 40 mM, pH 5.5 citrate buffer for the 5α-reductase 1 or 5α-reductase 2, respectively.
(§6) The reaction mixtures are then placed directly on a silica plate (HPTLC, 60F 254, Merck) and subjected to chromatography (solvent=10% diethyl ether, 90% dichloromethane). They are then analysed by digital autoradiography (Berthold).
(§7) The inhibition of the activity of the isoenzymes is measured by calculating the percentage of dihydrotestosterone formed from ^14C-testosterone relative to an untreated control.

The next test deals with T2, 5α-reductase 2 (Homo sapiens, UniProt P31213).
T2 construct: made in house; host or cells: COS7 cells (ATCC, CRL 1651), transient transfection with pSG5; 100,000 x g pellet of the lysate
T2 sequence (P31213 1-254): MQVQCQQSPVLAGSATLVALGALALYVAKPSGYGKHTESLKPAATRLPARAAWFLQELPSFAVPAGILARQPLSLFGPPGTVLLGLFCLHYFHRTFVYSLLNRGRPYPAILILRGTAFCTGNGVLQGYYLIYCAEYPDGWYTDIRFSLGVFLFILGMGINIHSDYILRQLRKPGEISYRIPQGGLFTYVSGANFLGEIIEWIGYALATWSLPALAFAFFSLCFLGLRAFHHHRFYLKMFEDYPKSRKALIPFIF
Description: Inhibition of type 2 5α-reductase (14C-testosterone to DHT conversion, lysate of transfected COS7 cells). Type of test: biochemical. As to conditions: for IC50: pH 5.5 citrate buffer, 1 nM 14C-testosterone, 5 mM NADPH, 50 minutes at 37° C., read-out: 5α-reductases: IC50 Type II; for specificity for the type 2 5α-reductase (in words): type 2 versus type 1.
Source text: as §1
The primers used to obtain the 5α-reductase 2 cDNA are:
+ strand: 5′ GCGATGCAGGTTCAGTG 3′
− strand: 5′ ATTGTGGGAGCTCTGCT 3′.
as §2, §3, §4, §5, §6, §7

For the molecule `O=C(O)c1cc2c(ccc3ccccc32)[nH]1` [Example 7, 3H-benz[e]indole-2-carboxylic acid], on 5α-reductase 1, the concentration for half-maximal inhibition (IC50) was 3 µM and the “specificity with respect to type 1 5α-reductase (in words)” value was “pronounced specificity with respect to type 1 5α-reductase”. Moreover, the IC50 on 5α-reductase 2 was determined as 6 µM.

In the case of `COc1cc2[nH]c(C(=O)O)cc2cc1OCc1cc(C(F)(F)F)cc(C(F)(F)F)c1` [Example 3, 5-[3,5-bis(trifluoromethyl)benzyloxy]-6-methoxy-1H-indole-2-carboxylic Acid], at 5α-reductase 1, the IC50 came to 0.5 µM and the “quality as inhibitor of 5α-reductase (in words)” value is listed as “very good inhibitors of the two types of 5α-reductase”. Besides, at 5α-reductase 2, the IC50 was 0.001 to 0.005 µM.

Take `COc1cc(OCc2cc(C(F)(F)F)cc(C(F)(F)F)c2)c2cc(C(=O)O)[nH]c2c1` [Example 2, 4-[3,5-bis(trifluoromethyl)benzyloxy]-6-methoxy-1H-indole-2-carboxylic acid]: on 5α-reductase 1, the half-maximal inhibitory concentration (IC50) turned out to be 10 µM and the “specificity with respect to type 1 5α-reductase (in words)” value is on record as “very pronounced specificity with respect to type 1 5α-reductase”. Further, on 5α-reductase 2, the concentration for half-maximal inhibition (IC50) is greater than 100 µM.

With `O=C(O)c1cc2cc(OCc3ccccc3)c(OCc3ccccc3)cc2[nH]1` [c, 5,6-bis(benzyloxy)-1H-indole-2-carboxylic acid], the 50% inhibitory concentration (IC50) on 5α-reductase 1 is greater than 100 µM. At 5α-reductase 2, the IC50 was 0.005 µM and the “specificity for the type 2 5α-reductase (in words)” value is “more pronounced specificity for the type 2 5α-reductase”.

For the molecule `COc1cc2[nH]c(C(=O)O)cc2cc1OCc1ccccc1` [a, 5-benzyloxy-6-methoxy-1H-indole-2-carboxylic acid], at 5α-reductase 1, the IC50 came out at 1 µM and the “quality as inhibitor of 5α-reductase (in words)” value is given as “very good inhibitors of the two types of 5α-reductase”. Further, the 50% inhibitory concentration (IC50) on 5α-reductase 2 came out at 0.001 µM.

Consider `COc1ccc(COc2cc3cc(C(=O)O)[nH]c3cc2OC)cc1` [Example 5, 5-(4-methoxybenzyloxy)-6-methoxy-1H-indole-2-carboxylic acid], for which, at 5α-reductase 1, the concentration for half-maximal inhibition (IC50) was in the range of 1 to 5 µM and the “quality as inhibitor of 5α-reductase (in words)” value was “very good inhibitors of the two types of 5α-reductase”. Besides, on 5α-reductase 2, the IC50 turned out to be 0.01 µM.

Consider `COc1cc2[nH]c(C(=O)O)cc2cc1OCc1ccc(C#N)cc1` [Example 6, 5-(4-cyanobenzyloxy)-6-methoxy-1H-indole-2-carboxylic acid], for which the values for the IC50 on 5α-reductase 1 and at 5α-reductase 2 were 5 µM and 0.04 µM, respectively. On 5α-reductase 1, the “quality as inhibitor of 5α-reductase (in words)” value was “very good inhibitors of the two types of 5α-reductase”.

Consider `COc1cc2[nH]c(C(=O)O)cc2cc1OCc1cc(OC)c(OC)c(OC)c1` [Example 4, 5-(3,4,5-trimethoxybenzyloxy)-6-methoxy-1H-indole-2-carboxylic acid], for which, at 5α-reductase 1, the half-maximal inhibitory concentration (IC50) was greater than 100 µM. Moreover, at 5α-reductase 2, the IC50 is 0.01 µM and the “specificity for the type 2 5α-reductase (in words)” value was “more pronounced specificity for the type 2 5α-reductase”.

As to `Cn1c(C(=O)O)cc2c3ccccc3ccc21` [Example 8, 3-methyl-3H-benz[e]indole-2-carboxylic Acid], the results for the IC50 at 5α-reductase 1 and at 5α-reductase 2 were 0.5 µM and 10 µM, respectively. Besides, the “specificity with respect to type 1 5α-reductase (in words)” value at 5α-reductase 1 is on record as “pronounced specificity with respect to type 1 5α-reductase”.

As to `COc1cc(OCc2ccccc2)c2cc(C(=O)O)[nH]c2c1` [Example 1, 4-benzyloxy-6-methoxy-1H-indole-2-carboxylic acid], on 5α-reductase 1, the IC50 was 1 to 4 µM and the “specificity with respect to type 1 5α-reductase (in words)” value is listed as “very pronounced specificity with respect to type 1 5α-reductase”. For the same molecule, on 5α-reductase 2, the IC50 is greater than 100 µM.

On to `Cc1c(C(=O)O)[nH]c2cc(OCc3ccccc3)c(OCc3ccccc3)cc12` [Compound b, 5,6-bis(benzyloxy)-3-methyl-1H-indole-2-carboxylic acid], for which, at 5α-reductase 1, the IC50 was greater than 100 µM, the “quality as inhibitor of 5α-reductase (in words)” value was “moderate inhibitor” and the “specificity with respect to type 1 5α-reductase (in words)” value was “more pronounced specificity for the type 1 5α-reductase”. The concentration for half-maximal inhibition (IC50) at 5α-reductase 2 came to 1 µM.

Broadly, the IC50 is the concentration that gives 50% inhibition.
